From patent publication US20260184663A1, “INDENE COMPOUNDS, PHARMACEUTICAL COMPOSITIONS THEREOF, AND THEIR THERAPEUTIC APPLICATIONS” (NucMito Pharmaceuticals co. Ltd., priority 2022, published 2026)

Legend:
Format in all cases: cell-based
[1] = tested on: MDA-MB-231 (breast cancer); experiment: Antiproliferative activity (CCK-8 cell viability), MDA-MB-231; conditions: Homo sapiens, 72 h, read-out: Antiproliferative activity in cancerous cells, MDA-MB-231 (inhibition of cell growth); for inhibition at 3.3 µM: Compound concentration: 3.3 μM; for inhibition at 10 µM: Compound concentration: 10 μM; for inhibition at 30 µM: Compound concentration: 30 μM
Procedure, shortened: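 In this CCK-8 viability assay, MDA-MB-231 cells maintained in Dulbecco's modified Eagle's medium containing 10% fetal bovine serum were placed in 96-well plates (2,000-5,000 cells/well) and treated with compound for 72 h at 37° C. A 4 h incubation with 10 μL CCK-8 followed, plates were read at 450 nm, and viability was expressed against DMSO vehicle wells across replicates.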

HepG2 (liver cancer) = experiment: Antiproliferative activity (CCK-8 cell viability), HepG2; conditions: Homo sapiens, 72 h, read-out: Antiproliferative activity in cancerous cells, HepG2 (inhibition of cell growth); for inhibition at 3.3 µM: Compound concentration: 3.3 μM; for inhibition at 10 µM: Compound concentration: 10 μM; for inhibition at 30 µM: Compound concentration: 30 μM
Procedure, shortened: (§1)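 Cells were seeded at 2,000-5,000/well (HeLa in MEM, HepG2 and SW480 in DMEM, A549 in F-12K, all with 10% FBS) and treated with compound at 3.3, 10 or 30 μM for 72 h at 37° C. CCK-8 was added for 4 h, absorbance was read at 450 nm, and viability was expressed relative to DMSO-treated wells.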

SW480 (colon cancer) = experiment: Antiproliferative activity (CCK-8 cell viability), SW480; conditions: Homo sapiens, 72 h, read-out: Antiproliferative activity in cancerous cells, SW480 (inhibition of cell growth); for inhibition at 3.3 µM: Compound concentration: 3.3 μM; for inhibition at 10 µM: Compound concentration: 10 μM; for inhibition at 30 µM: Compound concentration: 30 μM
Procedure, shortened: as §1

[2] = tested on: B16F10 (malignant melanoma); experiment: Antiproliferative activity (CCK-8 cell viability), B16F10; conditions: Mus musculus, 72 h, read-out: Antiproliferative activity in cancerous cells, B16F10 (inhibition of cell growth); for inhibition at 3.3 µM: B16-F10, Compound concentration: 3.3 μM; for inhibition at 10 µM: B16-F10, Compound concentration: 10 μM; for inhibition at 30 µM: B16-F10, Compound concentration: 30 μM
Procedure, shortened: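 Attached B16F10 cells in 96-well plates were incubated with compound at 37° C for 72 h, followed by 10 μL CCK-8 reagent per well and a further 4 h incubation. A multi-well plate reader measured absorbance at 450 nm. Percent viability across replicates was calculated against DMSO vehicle-treated cells.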

[3] = tested on: A431 (epidermoid carcinoma); experiment: Antiproliferative activity (CCK-8 cell viability), A431; conditions: Homo sapiens, 72 h, read-out: Antiproliferative activity in cancerous cells, A431 (inhibition of cell growth); for inhibition at 3.3 µM: A-431, Compound concentration: 3.3 μM; for inhibition at 10 µM: A-431, Compound concentration: 10 μM; for inhibition at 30 µM: A-431, Compound concentration: 30 μM
Procedure, shortened: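 Cell viability of compound-treated A431 cells was measured with a Cell Counting Kit-8. Each well received 10 μL of CCK-8 after 72 h of compound exposure, followed by 4 h incubation at 37° C. and a 450 nm plate-reader measurement. Percent viability was calculated relative to DMSO controls across replicates.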

[4] = tested on: A549 (lung adenocarcinoma); experiment: Antiproliferative activity (CCK-8 cell viability), A549; conditions: Homo sapiens, 72 h, read-out: Antiproliferative activity in cancerous cells, A549 (inhibition of cell growth); for inhibition at 3.3 µM: Compound concentration: 3.3 μM; for inhibition at 10 µM: Compound concentration: 10 μM; for inhibition at 30 µM: Compound concentration: 30 μM
Procedure, shortened: as §1

HeLa (cervical cancer) = experiment: Antiproliferative activity (CCK-8 cell viability), HeLa; conditions: Homo sapiens, 72 h, read-out: Antiproliferative activity in cancerous cells, HELA (inhibition of cell growth); for inhibition at 3.3 µM: Compound concentration: 3.3 μM; for inhibition at 10 µM: Compound concentration: 10 μM; for inhibition at 30 µM: Compound concentration: 30 μM
Procedure, shortened: as §1

Row | SMILES | inhibition at 3.3 µM [1] [%] | inhibition at 10 µM [1] [%] | inhibition at 30 µM [1] [%] | inhibition at 3.3 µM (HepG2 (liver cancer)) [%] | inhibition at 10 µM (HepG2 (liver cancer)) [%] | inhibition at 30 µM (HepG2 (liver cancer)) [%] | inhibition at 3.3 µM (SW480 (colon cancer)) [%] | inhibition at 10 µM (SW480 (colon cancer)) [%] | inhibition at 30 µM (SW480 (colon cancer)) [%] | inhibition at 3.3 µM [2] [%] | inhibition at 10 µM [2] [%] | inhibition at 30 µM [2] [%] | inhibition at 3.3 µM [3] [%] | inhibition at 10 µM [3] [%] | inhibition at 30 µM [3] [%] | inhibition at 3.3 µM [4] [%] | inhibition at 10 µM [4] [%] | inhibition at 30 µM [4] [%] | inhibition at 3.3 µM (HeLa (cervical cancer)) [%] | inhibition at 10 µM (HeLa (cervical cancer)) [%] | other results
1 | CC1=C(CC(=O)O)c2c(F)ccc(F)c2/C1=C\c1ccc(C(C)C)cc1 [D4, (Z)-2-(4,7-Difluoro-1-(4-isopropylbenzylidene)-2-methyl-1H-inden-3-yl)acetic acid] | 30 to 50 | 30 to 50 | ≥ 50 | < 30 | < 30 | ≥ 50 | < 30 | < 30 | ≥ 50 | 30 to 50 | ≥ 50 | ≥ 50 | < 30 | < 30 | ≥ 50 | < 30 | 30 to 50 | ≥ 50 | ≥ 50 | ≥ 50 | inhibition at 30 µM (HeLa (cervical cancer)): ≥ 50%
2 | CC1=C(CC(=O)O)c2c(F)cc(F)cc2/C1=C\c1ccc(C(F)(F)F)cc1 [D5, (Z)-2-(4,6-Difluoro-2-methyl-1-(4-(trifluoromethyl)benzylidene)-1H-inden-3-yl)-acetic acid] | < 30 | 30 to 50 | ≥ 50 | < 30 | < 30 | 30 to 50 | < 30 | < 30 | < 30 | < 30 | ≥ 50 | ≥ 50 | ≥ 50 | ≥ 50 | ≥ 50 | 30 to 50 | ≥ 50 | ≥ 50 | < 30 | ≥ 50 | inhibition at 30 µM (HeLa (cervical cancer)): ≥ 50%
3 | CCOCc1ccc(/C=C2/C(C)=C(CC(=O)O)c3cc(F)ccc32)cc1 [D10, (Z)-2-(1-(4-(Ethoxymethyl)benzylidene)-5-fluoro-2-methyl-1H-inden-3-yl)acetic acid] | < 30 | < 30 | 30 to 50 | < 30 | < 30 | 30 to 50 | 30 to 50 | 30 to 50 | 30 to 50 | 30 to 50 | 30 to 50 | 30 to 50 | ≥ 50 | ≥ 50 | ≥ 50 | 30 to 50 | 30 to 50 | 30 to 50 | 30 to 50 | ≥ 50 | inhibition at 30 µM (HeLa (cervical cancer)): ≥ 50%
4 | CC1=C(CC(=O)O)c2cc(F)ccc2/C1=C\c1ccc(CO)cc1 [D11, (Z)-2-(5-Fluoro-1-(4-(hydroxymethyl)benzylidene)-2-methyl-1H-inden-3-yl)acetic acid] | ≥ 50 | ≥ 50 | ≥ 50 | < 30 | < 30 | < 30 | < 30 | ≥ 50 | ≥ 50 | < 30 | < 30 | < 30 | < 30 | ≥ 50 | ≥ 50 | < 30 | ≥ 50 | ≥ 50 | < 30 | < 30 | inhibition at 30 µM (HeLa (cervical cancer)): ≥ 50%
5 | COc1ccc(/C=C2/C(C)=C(CC(=O)O)c3cc(F)ccc32)cc1Cl [D12, (Z)-2-(1-(3-Chloro-4-methoxybenzylidene)-5-fluoro-2-methyl-1H-inden-3-yl)acetic acid] | < 30 | 30 to 50 | ≥ 50 | < 30 | 30 to 50 | ≥ 50 | < 30 | < 30 | ≥ 50 | < 30 | 30 to 50 | ≥ 50 | ≥ 50 | ≥ 50 | ≥ 50 | < 30 | < 30 | ≥ 50 | < 30 | 30 to 50 | inhibition at 30 µM (HeLa (cervical cancer)): ≥ 50%
6 | CC1=C(CC(=O)O)c2cc(F)ccc2/C1=C\c1ccc(-c2ccc(Cl)cc2)cc1 [D13, (Z)-2-(1-((4′-Chloro-[1,1′-biphenyl]-4-yl)methylene)-5-fluoro-2-methyl-1H-inden-3-yl)acetic acid] | < 30 | 30 to 50 | ≥ 50 | < 30 | < 30 | < 30 | 30 to 50 | 30 to 50 | 30 to 50 | ≥ 50 | ≥ 50 | ≥ 50 | < 30 | 30 to 50 | 30 to 50 | < 30 | < 30 | 30 to 50 | < 30 | ≥ 50 | inhibition at 30 µM (HeLa (cervical cancer)): ≥ 50%
7 | CC1=C(CC(=O)O)c2cccc(F)c2/C1=C/c1cccc(COc2ccccc2)c1 [E8, (E)-2-(7-Fluoro-2-methyl-1-(3-(phenoxymethyl)benzylidene)-1H-inden-3-yl)-acetic acid] | ≥ 50 | ≥ 50 | ≥ 50 | 30 to 50 | ≥ 50 | ≥ 50 | 30 to 50 | ≥ 50 | ≥ 50 | < 30 | 30 to 50 | ≥ 50 | ≥ 50 | ≥ 50 | ≥ 50 | < 30 | ≥ 50 | ≥ 50 | 30 to 50 | ≥ 50 | inhibition at 30 µM (HeLa (cervical cancer)): ≥ 50%
